The experiment deals with 5-alpha reductase (5AR). The experiment in a line: Analysis of the ability of inhibition of 5AR activity (β-NADPH absorbance). In kind it is biochemical, Sprague Dawley rats. The settings on record: finasteride 100 uM, rat prostate enzyme source, 7.5 mM testosterone, 30 minutes. On the procedure:
In order to prepare the 5AR enzyme source, first, 15-week-old Sprague Dawley rats (obtained from Coretech) were kept under CO2 inhalation anesthesia, and then the prostate tissue was excised. After washing 200 mg of the excised tissue twice with PBS at pH 7.4, 10 ml of lysis buffer {20 mM sodium phosphate containing 0.32 M sucrose and 1 mM ethylenediaminetetraacetic acid (EDTA) at pH 6.5} was added, followed by homogenizing the mixture by a glass homogenizer. The homogenate was centrifuged at 4° C. and 5,000 rpm for 15 minutes to take the supernatant and quantify a protein using Brad Ford reagent, and then the protein was used as a 5AR enzyme source. The remaining homogenate was stored at −70° C.
The ability to inhibit 5AR activity was measured using the method of Nahata and Dixit {Andrologia, 46(6):592-601, 2014}. In a 96-well plate, the enzyme source (0.8 mg/ml protein) prepared as in 2-2, a solution obtained by dissolving the solvent extract prepared in 2-1. in methanol (50 ug/ml), 7.5 mM testosterone, and 300 uM β-NADPH were reacted at 37° C. Thereafter, absorbance according to the change in the amount of β-NADPH at 350 nm was measured every 5 minutes for a total of 30 minutes. The measurement value was calculated using a standard graph of β-NADPH, and the unit was expressed as pg/ml. […]

On to `CC(C)(C)NC(=O)[C@H]1CC[C@H]2[C@@H]3CC[C@H]4NC(=O)C=C[C@]4(C)[C@H]3CC[C@]12C` [finasteride], for which the “concentration of β-NADPH in the reaction solution at the end of the reaction (5AR activity inhibition)” value was “concentration of β-NADPH increased compared to that in the negative control group”.
